Common to all, as to test: DTP human tumour cell line panel, 48 h
Experiment [1] relates to HCC-2998 colon.
The test system of experiment [2] is BT-549 breast.
Experiment [3] has as its system NCI-H23 lung.
Experiment [4] has as its system UACC-62 melanoma.
Experiment [5] relates to SK-MEL-2 melanoma.
Experiment [6] deals with HL-60(TB) leukemia.
Experiment [7] concerns OVCAR-4 ovarian.
Experiment [8] deals with A498 renal.
The subject of experiment [9] is HOP-92 NSCLC.
The subject of experiment [10] is SK-OV-3 ovarian.

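Protocol summary: plate cells (96-well), add compound at 5 concentrations, incubate 48 h, interpolate endpoints linearly. Abbreviation: GI50, concentration required for 50% inhibition of growth. At the TGI there is no net growth.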

The term TGI denotes the concentration at which net growth stops. As usually defined, the GI50 is the concentration giving 50% growth inhibition.

For `O=C(O)c1ccccc1Sc1ccc(C=C2NC(=S)N(c3ccccc3)C2=O)s1`, the TGI is above 100 µM in [1]; above 100 µM in experiment [2]; above 100 µM in [3]; above 100 µM in experiment [4]; above 100 µM in experiment [5]; 82.1 µM in experiment [6]. Moreover, the TGI in experiment [7] was 59.8 µM; in [8] it was above 100 µM.

`Cc1csc(NCc2ccc(Cl)cc2)n1`: the total growth inhibition concentration (TGI) in [2] is above 100 µM; in [3] it was above 100 µM; in experiment [5], above 100 µM; in experiment [9] it was 89.9 µM; in experiment [6] it was above 100 µM; in experiment [7], above 100 µM. The TGI in experiment [8] and in [10] was above 100 µM throughout.

Turning to `O=C(NCC(O)COc1ccccc1)c1ccccc1O` (centres undefined), the TGI in [1], in experiment [2], in [3], in [4], in [5] and in [9] was above 100 µM throughout. Besides, the TGI in experiment [7], in [8] and in [10] was above 100 µM throughout.

Turning to `CCCNC(=O)c1cc(OC)c(OC)cc1NC(=O)C12CC3CC(CC(C3)C1)C2`, the TGI is 31.9 µM in [2]; 31.6 µM in [3]; 29.5 µM in experiment [5]; 34.6 µM in experiment [9]; above 100 µM in experiment [6]; 33.6 µM in experiment [7]. Further, the TGI in [8] was determined as 31.6 µM.

In the case of `Cc1nc2nnc(CCCCCCCCc3nnc4nc(C)[nH]n34)n2[nH]1`, the TGI in experiment [1], in experiment [2], in experiment [3], in [5], in experiment [9] and in [6] was above 100 µM each time. The TGI in experiment [7], in experiment [8] and in experiment [10] was above 100 µM throughout.

Turning to `O=[N+]([O-])c1ccc(CSC2=C(c3ccc(Cl)cc3)S/C(=C3\SC(SCc4ccc([N+](=O)[O-])cc4)=C(c4ccc(Cl)cc4)S3)S2)cc1`, the TGI in [1], in experiment [2], in experiment [3], in [4], in [5] and in experiment [9] was above 100 µM throughout. For the same compound, the TGI in [7], in experiment [8] and in experiment [10] was above 100 µM each time.

For the compound `COc1cccc(C2c3cc4c(cc3OC(NNS(=O)(=O)c3ccc(C)cc3)C2C)OCO4)c1O` (centres undefined), the TGI in [1] was above 100 µM; in experiment [2], 68.8 µM; in [3], above 100 µM; in experiment [4], 79.7 µM; in experiment [5] it was 53 µM; in experiment [9], 76.3 µM. Besides, the TGI in [6] was 38.2 µM; in experiment [8], 70.4 µM; in experiment [10] it was above 100 µM.

`CCOC(=O)/C(C(=O)c1ccc[nH]1)=C1/CCCN1C`: the TGI in experiment [1], in experiment [2], in experiment [3], in experiment [4], in [5] and in [6] was above 100 µM throughout. Moreover, the total growth inhibition concentration (TGI) in [7], in experiment [8] and in [10] was above 100 µM each time.

For the compound `CCN(CC)C(=O)N[C@@H](CC(C)C)C(=O)NC`, the TGI in experiment [1], in experiment [2], in experiment [3], in experiment [4], in experiment [5] and in experiment [6] was above 100 µM in each case. The TGI in experiment [7], in experiment [8] and in [10] was above 100 µM each time.

With `C(/C=C(\Nc1ccccc1)c1ccc2ccccc2c1)=Nc1ccccc1`, the TGI in [2] is 4.6 µM; in experiment [3], 6.63 µM; in experiment [4] it was 3.37 µM; in experiment [5], 30.9 µM; in [9] it was 28.1 µM; in experiment [6], 11.8 µM. For the same compound, the TGI stood at 14.5 µM in experiment [7], 25.8 µM in experiment [8] and 11.5 µM in [10].

For `NC1=Nc2ncccc2C(=O)NN1`, the TGI in [1], in experiment [2], in [3], in experiment [4], in experiment [5] and in experiment [9] was above 10 µM each time. Also, the TGI in experiment [6], in [8] and in experiment [10] was above 10 µM throughout.

Turning to `COc1cc2c(c(O)c1OC)C(O)C1CCC(=O)N1C2c1ccc2c(c1)OCO2` (centres undefined), the TGI in experiment [1], in experiment [2], in experiment [3], in experiment [4], in experiment [9] and in [6] was above 100 µM each time. Further, the TGI in experiment [7], in [8] and in [10] was above 100 µM each time.

In the case of `O=C1c2ccccc2CC12Cc1ccc3c(c1C2=O)CCCC3` (centres undefined), the TGI in experiment [1], in experiment [2], in experiment [4], in [5], in experiment [6] and in [7] was above 100 µM each time. The total growth inhibition concentration (TGI) in experiment [8] and in [10] was above 100 µM in each case.

Turning to `CC(=O)N(C(=O)CC(=O)N1N=C(C)C(N=Nc2cccc([N+](=O)[O-])c2)C1=O)c1ccc(Cl)cc1` (centres undefined), the TGI in experiment [1], in [2], in [3], in experiment [4], in [9] and in experiment [6] was above 10 µM in each case. For the same compound, the TGI in experiment [7] and in experiment [10] was above 10 µM in each case.

As for `Cc1cccc(NC(=S)NNC(=O)c2cc(-c3ccccc3)nc3ccccc23)c1`, the TGI in [1] was 57.3 µM; in experiment [2], above 100 µM; in experiment [3], 84.8 µM; in experiment [4], 99.7 µM; in experiment [5], 45.8 µM; in experiment [9], 68.5 µM. Also, the values for the TGI in [7], in experiment [8] and in experiment [10] were above 100 µM, 47.6 µM and 59.2 µM, respectively.

In the case of `CSC(SC)=C(C#N)C(=O)Nc1ccc(Cl)cc1`, the total growth inhibition concentration (TGI) was above 100 µM in experiment [1]; above 100 µM in experiment [2]; above 100 µM in experiment [3]; above 100 µM in experiment [4]; above 100 µM in experiment [5]; 69.3 µM in experiment [6]. Also, the values for the TGI in experiment [7], in experiment [8] and in [10] were above 100 µM, 90.4 µM and above 100 µM, respectively.

For `O=C1CC2(CCN(Cc3ccccc3)CC2)C(=O)N1N1CCCCC1`, the TGI in experiment [2], in [3], in [4], in [5], in experiment [6] and in experiment [8] was above 100 µM each time. Moreover, in experiment [10], the TGI is above 100 µM.

Regarding `O=c1[nH]nc(-c2cccc([N+](=O)[O-])c2)[nH]1`, the TGI in [1], in experiment [2], in experiment [3], in [4], in experiment [5] and in experiment [6] was above 100 µM throughout. Also, the TGI in experiment [7] and in [8] was above 100 µM in each case.

`O=C(Cn1c(=O)oc2ccccc21)N(c1ccccc1)c1ccccc1`: the TGI in experiment [2], in [3], in experiment [4], in experiment [5], in experiment [6] and in experiment [8] was above 100 µM each time. Also, the TGI in experiment [10] is above 100 µM.

For the compound `c1c2c(cc3c1OCO3)-c1ncc3cc4c(cc3c1C2)OCO4`, the total growth inhibition concentration (TGI) was above 32.4 µM in experiment [1]; above 100 µM in experiment [2]; above 24.7 µM in experiment [3]; 9.16 µM in experiment [4]; above 87.1 µM in experiment [5]; above 80.5 µM in [9]. Also, the TGI in experiment [6] was above 100 µM; in experiment [7], above 100 µM; in experiment [10], 26.8 µM. In addition, the GI50 in [2] was 0.211 µM; in [3], below 0.0229 µM; in experiment [4] it was below 0.0267 µM; in [5], above 8.58 µM; in experiment [9] it was 33.4 µM; in experiment [6], 0.0713 µM. The GI50 in experiment [7] is 28.6 µM; in experiment [10] it was below 0.01 µM.

Take `Clc1ccc(Cc2nc3cc4ccccc4cc3[nH]2)cc1Cl`: the TGI was determined as 40.4 µM in [1]; 37.2 µM in [2]; 71.6 µM in experiment [3]; 34.2 µM in experiment [4]; 34.4 µM in experiment [5]; 30.6 µM in experiment [9]. The TGI in experiment [6] was 59.2 µM; in experiment [7], 36.8 µM; in experiment [8] it was 27.7 µM.

For the compound `Cc1n[nH]c(=O)c2c3c([nH]c12)-c1ccccc1C3`, the TGI in experiment [2], in experiment [3], in experiment [5], in experiment [9], in [7] and in experiment [8] was above 100 µM throughout. The same compound gave a TGI in experiment [10] above 100 µM.

`COc1cc2c(cc1C)NC(=O)/C2=C/c1c(Cl)[nH]c2ccccc12`: the TGI in experiment [1] amounted to 15.4 µM; in experiment [2], 9.35 µM; in [3], 23.7 µM; in experiment [4], 14.4 µM; in [5] it was 8.56 µM; in [9], 25 µM. Further, the TGI came to 7.37 µM in experiment [6], 16.6 µM in experiment [8] and 7.71 µM in experiment [10].

Turning to `N#CCCN(C(=O)Nc1ccc(NC(=O)N(CCC#N)c2ccccc2)cc1)c1ccccc1`, the TGI in experiment [1], in experiment [2], in experiment [3], in [4], in experiment [5] and in experiment [6] was above 100 µM throughout. The TGI in experiment [7], in [8] and in [10] was above 100 µM throughout.

`c1cc(CSP234N5CCN2CCN3CCN4CC5)cc(CSP234N5CCN2CCN3CCN4CC5)c1`: the TGI was 57.5 µM in [1]; 51.6 µM in experiment [2]; above 100 µM in [3]; 36.6 µM in experiment [4]; 45.1 µM in experiment [5]; 64.5 µM in experiment [9]. Also, the TGI in experiment [6] was 28.1 µM; in experiment [7], above 100 µM.

On to `CC1(C)OCC(/C=C\C(O)CC2(C)OCCO2)CO1` (centres undefined), for which the TGI in [1], in experiment [2], in [4], in experiment [5], in experiment [9] and in experiment [6] was above 100 µM each time. In addition, the TGI in experiment [7], in experiment [8] and in experiment [10] was above 100 µM each time.

As for `CCCCCCCC(=O)NC(C)(C)C(=O)NCC(=O)NC(CC(C)C)C(=O)NC(C)(C)C(=O)NCC(=O)NCC(=O)NC(CC(C)C)C(=O)NC(C)(C)C(=O)NCC(=O)NC(C(=O)NC(CO)CC(C)C)C(C)CC` (centres undefined), the TGI in [1] was determined as 7.71 µM; in experiment [2] it was 6.87 µM; in experiment [3] it was 7.49 µM; in experiment [4], 7.54 µM; in [5], 5.85 µM; in experiment [9], 6.36 µM. Moreover, the TGI was 7.9 µM in [7] and 7.61 µM in [10].

Consider `C[N+]1(CC[N+]2(C)CCCC2c2cccnc2)CCCC1c1cccnc1` (centres undefined), for which the TGI in [1], in [2], in experiment [3], in [4], in experiment [5] and in experiment [9] was above 100 µM each time. In addition, the TGI in experiment [7], in experiment [8] and in experiment [10] was above 100 µM each time.

As for `COc1ccc(/C=C(\C#N)c2ccccn2)cc1OC`, the TGI was above 100 µM in experiment [1]; 45.4 µM in [2]; above 100 µM in experiment [3]; above 100 µM in [4]; above 100 µM in [5]; 48.7 µM in [9]. Also, the TGI in experiment [6], in experiment [7] and in [10] was above 100 µM throughout.
